pIC50: −log10 of the molar value.
Legend:
PI3K-delta = target: T1, PI3K-delta (Homo sapiens, UniProt O00329); experiment: HTRF PI3K biochemical assay, delta isoform; conditions: form screened (neutral or TFA salt) given, read-out: PI3Kdelta IC50
T1 construct: purchased Upstate; Millipore 14-604

PI3K-alpha = target: T2, PI3K-alpha (Homo sapiens, UniProt P42336); experiment: HTRF PI3K biochemical assay, alpha isoform; conditions: ratio PI3K-alpha IC50 value / PI3K-delta IC50 value
T2 construct: purchased Upstate; Millipore 14-602
T2 sequence (P42336 whole entry, canonical isoform): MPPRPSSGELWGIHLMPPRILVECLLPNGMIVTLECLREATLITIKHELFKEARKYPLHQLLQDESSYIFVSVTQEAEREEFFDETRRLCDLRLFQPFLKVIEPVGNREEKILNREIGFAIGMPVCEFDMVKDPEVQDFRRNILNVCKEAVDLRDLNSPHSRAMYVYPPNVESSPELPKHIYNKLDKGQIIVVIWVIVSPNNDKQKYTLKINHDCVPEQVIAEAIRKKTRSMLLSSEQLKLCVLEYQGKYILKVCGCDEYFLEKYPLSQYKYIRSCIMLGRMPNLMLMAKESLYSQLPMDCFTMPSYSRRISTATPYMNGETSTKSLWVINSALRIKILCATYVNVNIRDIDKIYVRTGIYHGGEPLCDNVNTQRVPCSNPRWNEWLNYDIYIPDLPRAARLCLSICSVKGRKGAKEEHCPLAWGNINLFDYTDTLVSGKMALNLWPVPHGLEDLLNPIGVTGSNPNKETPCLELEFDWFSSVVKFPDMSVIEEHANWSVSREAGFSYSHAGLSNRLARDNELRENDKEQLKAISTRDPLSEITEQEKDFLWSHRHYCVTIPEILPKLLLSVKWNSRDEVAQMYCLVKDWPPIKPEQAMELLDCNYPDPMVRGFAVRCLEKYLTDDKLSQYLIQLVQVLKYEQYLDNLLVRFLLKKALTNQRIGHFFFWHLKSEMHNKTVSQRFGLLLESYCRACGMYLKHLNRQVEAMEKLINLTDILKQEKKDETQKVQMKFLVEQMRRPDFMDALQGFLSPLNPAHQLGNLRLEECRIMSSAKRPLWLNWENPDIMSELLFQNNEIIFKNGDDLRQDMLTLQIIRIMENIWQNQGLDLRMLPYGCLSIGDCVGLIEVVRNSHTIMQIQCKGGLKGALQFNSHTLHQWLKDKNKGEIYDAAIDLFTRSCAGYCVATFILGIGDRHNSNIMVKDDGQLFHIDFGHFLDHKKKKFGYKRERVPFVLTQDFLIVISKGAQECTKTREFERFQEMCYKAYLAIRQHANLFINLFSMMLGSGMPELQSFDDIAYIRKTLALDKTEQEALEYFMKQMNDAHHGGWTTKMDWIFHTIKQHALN
T2 sequence (P27986 whole entry partner, canonical isoform): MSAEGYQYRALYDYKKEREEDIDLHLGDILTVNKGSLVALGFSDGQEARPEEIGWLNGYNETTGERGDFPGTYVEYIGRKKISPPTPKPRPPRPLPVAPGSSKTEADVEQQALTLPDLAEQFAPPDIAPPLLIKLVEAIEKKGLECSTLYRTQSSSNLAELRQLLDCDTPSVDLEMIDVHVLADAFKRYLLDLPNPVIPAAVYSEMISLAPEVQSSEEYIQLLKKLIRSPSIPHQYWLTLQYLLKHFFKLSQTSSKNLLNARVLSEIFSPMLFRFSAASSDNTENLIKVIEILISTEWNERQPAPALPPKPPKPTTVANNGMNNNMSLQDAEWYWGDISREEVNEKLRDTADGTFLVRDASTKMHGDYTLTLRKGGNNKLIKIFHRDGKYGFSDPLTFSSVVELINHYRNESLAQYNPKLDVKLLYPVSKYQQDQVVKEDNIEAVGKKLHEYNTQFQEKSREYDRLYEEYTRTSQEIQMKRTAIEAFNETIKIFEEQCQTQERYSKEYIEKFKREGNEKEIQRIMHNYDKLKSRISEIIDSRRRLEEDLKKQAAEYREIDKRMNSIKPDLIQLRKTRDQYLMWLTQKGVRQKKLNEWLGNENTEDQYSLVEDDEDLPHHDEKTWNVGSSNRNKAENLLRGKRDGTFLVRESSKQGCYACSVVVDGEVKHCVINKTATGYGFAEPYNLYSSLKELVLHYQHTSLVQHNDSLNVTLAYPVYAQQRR
Text: The PI3-Kinase biochemical assays were developed to measure the intrinsic potency and compound dependent inhibition of the alpha, beta, delta, and gamma PI3K isoform enzymes. This assay was developed and further optimized from a kit produced by Upstate (Millipore catalog #33-047) and has been configured for HTS and SAR screening. Briefly, this procedure exploits the exquisite specificity and high affinity binding of enzyme reaction substrate phosphatidyl(3,4,5)triphosphate (PIP3) to the GRP1 pleckstrin homology (PH) domain to generate the signal. In the absence of PIP3, an HTRF (Homogeneous Time-Resolved Fluorescence energy transfer) complex is formed consisting of europium (Eu)-labeled anti-GST, GSTtagged GRP1-PH domain, biotin-PIP3 and streptavidin conjugated APC. The native PIP3 produced by PI3-Kinase activity disrupts in a competitive manner the biotin-PIP3 from the PH domain, resulting in the loss of energy transfer (HTRF complex) and a decrease in the signal. The format of this assay is the same for all 4 isoforms of PI3K; the differences lie in the concentration of enzyme used to achieve robust assay window. The alpha, beta, and delta assays are run at 0.5, 1, and 0.3 nM enzymes and the gamma assay is run at 5 nM enzyme. The ATP concentration is 100 uM in the alpha, beta, and delta assays and 50 uM ATP in the gamma assay. All reactions are run at 5 uM PIP2.
Compounds are serially diluted (3-fold in 100% DMSO) across a 384-well polypropylene source plated from column 3 to column 12 and column 13 to column 22, to yield 10 concentration dose response for each test compound. Columns 1, 2, 23 and 24 contain either only DMSO or pharmacological known control inhibitor.
The PI3-Kinase biochemical assay was optimized using the HTRF kit provided by Upstate (Millipore). The assay kit contains six reagents: 1) 4× Reaction Buffer; 2) native PIP2 (substrate); 3) Stop (EDTA); 4) Detection Mix A (Streptavidin-APC); 5) Detection Mix B (Eu-labeled Anti-GST plus GST-tagged PH-domain); 6) Detection Mix C.
PI3Kinase Reaction Buffer is prepared by dilution the stock 1:4 with de-ionized water. […] Enzyme addition and compound pre-incubation are initiated by the addition of 1.25 ul of PI3K (at twice its final concentration) in the 1× reaction buffer to all wells using a BioRaptor. Plates are incubated at room temperature for 15 minutes. Reactions are initiated by addition of 1.25 ul of 2× substrate solution (PIP2 and ATP in 1× reaction buffer) using BioRaptor. Plates are incubated in humidified chamber at room temperature for one hour. Reactions are quenched by addition of 0.625 uL of stop solution to all wells using the BioRaptor. The quenched reactions are then processed to detect product formation by adding 0.625 uL of Detection Solution to all wells using the BioRaptor (Detection mix C, Detection Mix A, and Detection Mix B combined together in an 18:1:1 ratio prepared 2 hours prior to use).
The loss of the HTRF signal is due to the displacement of biotinylated-PIP3 from the PH domain by the PI3K-dependent conversion of PIP2 to PIP3. This loss of signal is nonlinear with respect to both increasing product and time. This non-linear detection will impact accuracy of IC50 calculations; therefore, there is a need for a correction factor to obtain more accurate IC50 values. This correction is derived from a PIP3 standard curve run in a separate assay plate. All data were calculated using the ratio of acceptor (APC) to donor (Europium) fluorescence in each well of the assay plate. […] An IC50 was then calculated fitting the % inhibition data to the equation: % inhibition=min+(Max−min)/1+([inhibitor]/IC50)^n) where min is the % inhibition with inhibitor, max is the signal in DMSO control, and n is the Hill slope.
The determination of relative selectivity for a given compound is defined as the relative ratio of the (PI3K-alphalC50 value/PI3K-delta IC50 value).

T1 sequence (O00329 whole entry, canonical isoform): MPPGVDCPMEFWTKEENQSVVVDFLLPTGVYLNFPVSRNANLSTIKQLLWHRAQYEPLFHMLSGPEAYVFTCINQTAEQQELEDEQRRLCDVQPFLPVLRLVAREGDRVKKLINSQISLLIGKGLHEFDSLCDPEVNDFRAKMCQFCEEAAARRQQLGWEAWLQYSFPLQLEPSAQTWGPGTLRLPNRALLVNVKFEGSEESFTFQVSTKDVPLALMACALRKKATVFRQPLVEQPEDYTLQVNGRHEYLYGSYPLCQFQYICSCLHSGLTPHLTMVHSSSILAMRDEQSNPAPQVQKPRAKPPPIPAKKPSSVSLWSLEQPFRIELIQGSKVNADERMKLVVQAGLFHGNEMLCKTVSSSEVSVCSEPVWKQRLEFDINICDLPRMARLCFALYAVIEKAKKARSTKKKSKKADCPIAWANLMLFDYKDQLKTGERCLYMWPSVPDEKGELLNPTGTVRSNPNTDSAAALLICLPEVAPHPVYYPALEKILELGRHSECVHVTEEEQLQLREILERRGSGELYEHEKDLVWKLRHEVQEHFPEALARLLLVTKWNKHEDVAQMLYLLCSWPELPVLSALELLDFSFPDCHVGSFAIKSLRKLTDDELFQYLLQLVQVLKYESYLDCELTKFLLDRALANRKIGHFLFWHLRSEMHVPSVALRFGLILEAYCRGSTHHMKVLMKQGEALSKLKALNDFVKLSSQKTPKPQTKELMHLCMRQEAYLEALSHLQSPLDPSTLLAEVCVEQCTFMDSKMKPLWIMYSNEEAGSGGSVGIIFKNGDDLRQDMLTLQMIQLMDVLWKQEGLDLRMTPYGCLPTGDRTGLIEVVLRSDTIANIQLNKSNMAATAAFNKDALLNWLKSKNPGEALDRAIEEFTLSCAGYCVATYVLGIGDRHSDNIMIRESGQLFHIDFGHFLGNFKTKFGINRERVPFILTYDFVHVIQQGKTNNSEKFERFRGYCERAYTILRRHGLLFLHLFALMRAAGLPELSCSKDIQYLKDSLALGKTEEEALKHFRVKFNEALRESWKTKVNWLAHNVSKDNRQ
T1 sequence (P27986 whole entry partner, canonical isoform): as the sequence (P27986 whole entry partner, canonical isoform) above

Row | SMILES | pIC50 (PI3K-delta) | Selectivity versus PI3Kalpha (PI3K-alpha)
1 | CCn1c(C(C)C)nc2c(N[C@H]3CCN(C(=O)C4CC4)C3)ncnc21 [Compound 7-5, N-[(3S)-1-(cyclopropylcarbonyl)pyrrolidin-3-yl]-9-ethyl-8-(1-methylethyl)-9H-purin-6-amine] | 6.89 | >10
2 | CCn1c(CCCO)nc2c(N[C@H]3CCN(C(=O)C4CC4)C3)ncnc21 [Compound 7-6, 3-(6-{[(3S)-1-(cyclopropylcarbonyl)pyrrolidin-3-yl]amino}-9-ethyl-9H-purin-8-yl)propan-1-ol] | 6.96 | >10
3 | CCn1c(CC(F)(F)F)nc2c(N[C@H]3CCN(C(=O)C4CC4)C3)ncnc21 [Compound 7-7, N-[(3S)-1-(cyclopropylcarbonyl)pyrrolidin-3-yl]-9-ethyl-8-(2,2,2-trifluoroethyl)-9H-purin-6-amine] | 6.11 | >10
4 | CCn1c(COC)nc2c(N[C@H]3CCN(C(=O)C4CC4)C3)ncnc21 [Compound 7-8, N-[(3S)-1-(cyclopropylcarbonyl)pyrrolidin-3-yl]-9-ethyl-8-(methoxymethyl)-9H-purin-6-amine] | 6.72 | >10
5 | CCC(=O)N1CC[C@H](Nc2ncnc3c2nc(C2CC2)n3C)C1 [Compound 7-9, 8-cyclopropyl-9-methyl-N-[(3S)-1-propanoylpyrrolidin-3-yl]-9H-purin-6-amine] | 7.01 | >10
6 | CCn1c(C2CC2)nc2c(N[C@H]3CCN(C(=O)C4CC4)C3)ncnc21 [Compound 7-10, 8-cyclopropyl-N-[(3S)-1-(cyclopropylcarbonyl)pyrrolidin-3-yl]-9-ethyl-9H-purin-6-amine] | 6.92 | >10
7 | CCC(=O)N1CC[C@H](Nc2ncnc3c2nc(C(F)(F)F)n3CC)C1 [Compound 7-11, 9-ethyl-N-[(3S)-1-propanoylpyrrolidin-3-yl]-8-(trifluoromethyl)-9H-purin-6-amine] | 7.85 | >10
8 | CCn1c(C(F)F)nc2c(N[C@H]3CCN(C(=O)c4ccn(C)n4)C3)ncnc21 [Compound 7-12, 8-(difluoromethyl)-9-ethyl-N-{(3S)-1-[(1-methyl-1H-pyrazol-3-yl)carbonyl]pyrrolidin-3-yl}-9H-purin-6-amine] | 7.41 | >10
9 | CCC(=O)N1CC[C@H](Nc2ncnc3c2nc(C(F)F)n3CC)C1 [Compound 7-13, 8-(difluoromethyl)-9-ethyl-N-[(3S)-1-propanoylpyrrolidin-3-yl]-9H-purin-6-amine] | 7.49 | >10
10 | CCn1c(C(F)F)nc2c(N[C@H]3CCN(C(=O)C4CC4)C3)ncnc21 [Compound 7-14, N-[(3S)-1-(cyclopropylcarbonyl)pyrrolidin-3-yl]-8-(difluoromethyl)-9-ethyl-9H-purin-6-amine] | 7.66 | >10
11 | CCn1c(C(F)F)nc2c(N[C@H]3CCN(C(=O)C4CCC4)C3)ncnc21 [Compound 7-15, N-[(3S)-1-(cyclobutylcarbonyl)pyrrolidin-3-yl]-8-(difluoromethyl)-9-ethyl-9H-purin-6-amine] | 8.12 | >10
12 | CCn1c(C(F)F)nc2c(N[C@H]3CCN(C(=O)c4cocn4)C3)ncnc21 [Compound 7-16, 8-(difluoromethyl)-9-ethyl-N-[(3S)-1-(1,3-oxazol-4-ylcarbonyl)pyrrolidin-3-yl]-9H-purin-6-amine] | 6.92 | >10
13 | CCn1c(C(F)F)nc2c(N[C@H]3CCN(C(=O)[C@H]4C[C@H](OC)C4)C3)ncnc21 [Compound 7-17, 8-(difluoromethyl)-9-ethyl-N-{(3S)-1-[(trans-3-methoxycyclobutyl)carbonyl]pyrrolidin-3-yl}-9H-purin-6-amine] | 7.13 | >10
14 | CCn1c(C(F)F)nc2c(N[C@H]3CCN(C(=O)[C@H]4C[C@@H](OC)C4)C3)ncnc21 [Compound 7-18, 8-(difluoromethyl)-9-ethyl-N-{(3S)-1-[(cis-3-methoxycyclobutyl)carbonyl]pyrrolidin-3-yl}-9H-purin-6-amine] | 7.96 | >10
15 | CCn1c(C(F)F)nc2c(N[C@H]3CCN(C(=O)[C@H]4CCCN4C)C3)ncnc21 [Compound 7-19, 8-(difluoromethyl)-9-ethyl-N-[(3S)-1-(1-methyl-D-prolyl)pyrrolidin-3-yl]-9H-purin-6-amine] | 6.42 | >10
16 | CCn1c(CCOC)nc2c(N[C@H]3CCN(C(=O)C4CC4)C3)ncnc21 [Compound 7-22, N-[(3S)-1-(cyclopropylcarbonyl)pyrrolidin-3-yl]-9-ethyl-8-(2-methoxyethyl)-9H-purin-6-amine] | 6.64 | >10
17 | CCc1nc2c(N[C@H]3CCN(C(=O)C4CC4)C3)ncnc2n1CC [Compound 7-23, N-[(3S)-1-(cyclopropylcarbonyl)pyrrolidin-3-yl]-8,9-diethyl-9H-purin-6-amine] | 6.92 | >10
18 | CCn1c(C(C)(C)C)nc2c(N[C@H]3CCN(C(=O)C4CC4)C3)ncnc21 [Compound 7-24, 8-tert-butyl-N-[(3S)-1-(cyclopropylcarbonyl)pyrrolidin-3-yl]-9-ethyl-9H-purin-6-amine] | 6.82 | >10
19 | CCn1c(CC2CN(S(C)(=O)=O)C2)nc2c(N[C@H]3CCN(C(=O)C4CC4)C3)ncnc21 [Compound 7-25, N-[(3S)-1-(cyclopropylcarbonyl)pyrrolidin-3-yl]-9-ethyl-8-{[1-(methylsulfonyl)azetidin-3-yl]methyl}-9H-purin-6-amine] | 7.00 | >10
20 | CCn1c(C(F)F)nc2c(N[C@H]3CCN(c4ccccn4)C3)ncnc21 [Compound 7-26, 8-(difluoromethyl)-9-ethyl-N-[(3S)-1-pyridin-2-ylpyrrolidin-3-yl]-9H-purin-6-amine] | 7.55 | >10
21 | CCn1c(C(F)F)nc2c(N[C@H]3CCN(C(=O)N4CCC4)C3)ncnc21 [Compound 7-27, N-[(3S)-1-(azetidin-1-ylcarbonyl)pyrrolidin-3-yl]-8-(difluoromethyl)-9-ethyl-9H-purin-6-amine] | 8.28 | >10
22 | CCn1c(C(F)F)nc2c(N[C@H]3CCN(C(=O)N4CC(OC)C4)C3)ncnc21 [Compound 7-28, 8-(difluoromethyl)-9-ethyl-N-{(3S)-1-[(3-methoxyazetidin-1-yl)carbonyl]pyrrolidin-3-yl}-9H-purin-6-amine] | 8.49 | >10

Now from value to compound:

Row | pIC50 (PI3K-delta) | Selectivity versus PI3Kalpha (PI3K-alpha) | SMILES
23 | 6.29 | >10 | CCn1c(N2CC[C@@H](O)C2)nc2c(N[C@H]3CCN(C(=O)C4CC4)C3)ncnc21 [Compound 8-1, (3R)-1-(6-{[(3S)-1-(cyclopropylcarbonyl)pyrrolidin-3-yl]amino}-9-ethyl-9H-purin-8-yl)pyrrolidin-3-ol]
24 | > 9.00 | >10 | CCn1c(-n2cnc3ccccc32)nc2c(N[C@H]3CCN(C(=O)C4CC4)C3)ncnc21 [Compound 8-2, 8-(1H-benzimidazol-1-yl)-N-[(3S)-1-(cyclopropylcarbonyl)pyrrolidin-3-yl]-9-ethyl-9H-purin-6-amine]
25 | 7.96 | >10 | CCn1c(-n2cnc(C(F)(F)F)c2)nc2c(N[C@H]3CCN(C(=O)C4CC4)C3)ncnc21 [Compound 8-3, N-[(3S)-1-(cyclopropylcarbonyl)pyrrolidin-3-yl]-9-ethyl-8-[4-(trifluoromethyl)-1H-imidazol-1-yl]-9H-purin-6-amine]
26 | 7.00 | >10 | CCn1c(N(C)CC(C)C)nc2c(N[C@H]3CCN(C(=O)C4CC4)C3)ncnc21 [Compound 8-4, cyclopropyl[(3S)-3-({9-ethyl-8-[methyl(2-methylpropyl)amino]-9H-purin-6-yl}amino)pyrrolidin-1-yl]methanone]
27 | 7.64 | >10 | CCn1c(Oc2ccccc2)nc2c(N[C@H]3CCN(C(=O)C4CC4)C3)ncnc21 [Compound 8-5, N-[(3S)-1-(cyclopropylcarbonyl)pyrrolidin-3-yl]-9-ethyl-8-phenoxy-9H-purin-6-amine]
28 | 8.09 | >10 | CCn1c(Oc2ccc(OC)c(F)c2)nc2c(N[C@H]3CCN(C(=O)C4CC4)C3)ncnc21 [Compound 8-6, N-[(3S)-1-(cyclopropylcarbonyl)pyrrolidin-3-yl]-9-ethyl-8-(3-fluoro-4-methoxyphenoxy)-9H-purin-6-amine]
29 | 7.46 | >10 | CCn1c(OC(C)C)nc2c(N[C@H]3CCN(C(=O)C4CC4)C3)ncnc21 [Compound 8-7, N-[(3S)-1-(cyclopropylcarbonyl)pyrrolidin-3-yl]-9-ethyl-8-(1-methylethoxy)-9H-purin-6-amine]
30 | > 9.00 | >10 | CCn1c(-n2cnc3c2CCCC3)nc2c(N[C@H]3CCN(C(=O)C4CC4)C3)ncnc21 [Compound 8-8, N-[(3S)-1-(cyclopropylcarbonyl)pyrrolidin-3-yl]-9-ethyl-8-(4,5,6,7-tetrahydro-1H-benzimidazol-1-yl)-9H-purin-6-amine]
31 | 7.70 | >10 | CCCn1c(-c2cnn(CC)c2C)nc2c(N[C@H]3CCN(C(=O)CC)C3)ncnc21 [Compound 9-1, 8-(1-ethyl-5-methyl-1H-pyrazol-4-yl)-N-[(3S)-1-propanoylpyrrolidin-3-yl]-9-propyl-9H-purin-6-amine]
32 | 7.44 | >10 | CCCn1c(-c2cnc(C)nc2)nc2c(N[C@H]3CCN(C(=O)CC)C3)ncnc21 [Compound 9-2, 8-(2-methylpyrimidin-5-yl)-N-[(3S)-1-propanoylpyrrolidin-3-yl]-9-propyl-9H-purin-6-amine]

From patent US9938281B2 (Merck Sharp & Dohme Corp., priority 2012, dated 2018)
